In brackets after ≈: the same amount, converted by molar mass. Activity calls are given as the source filed them. No cut-off for these calls is given here.
Experiments:
Escherichia coli = experiment: Antibacterial activity against Escherichia coli after 24 hrs micro dilution assay; format: functional
Pseudomonas aeruginosa = experiment: Antibacterial activity against Pseudomonas aeruginosa after 24 hrs micro dilution assay; format: functional
Staphylococcus aureus = experiment: Antibacterial activity against Staphylococcus aureus after 24 hrs micro dilution assay; format: functional
[1] = test system: Staphylococcus epidermidis; experiment: Antibacterial activity against Staphylococcus epidermidis after 24 hrs micro dilution assay; format: functional
Candida albicans = experiment: Antifungal activity against Candida albicans MTCC 3017 after 24 hrs micro dilution assay; format: functional
Nakaseomyces glabratus = experiment: Antifungal activity against Candida glabrata MTCC 3019 after 24 hrs micro dilution assay; format: functional
Geotrichum candidum = experiment: Antifungal activity against Geotrichum candidum NCIM 980 after 24 hrs micro dilution assay; format: functional
[2] = Toxicity in human RBC assessed as hemolysis at 1024 ug/ml; format: cell-based, Erythrocyte; settings: for Activity: erythrocyte; for hemolysis at 1024 ug/ml: red blood cells, read-out: Activity
[3] = Escherichia coli, 24 h, read-out: MIC
[4] = Pseudomonas aeruginosa, 24 h, read-out: MIC
[5] = Staphylococcus aureus, 24 h, read-out: MIC
[6] = Staphylococcus epidermidis, 24 h, read-out: MIC

Row | SMILES | MIC (Escherichia coli) | MIC (Pseudomonas aeruginosa) | MIC (Staphylococcus aureus) | MIC [1] | MIC (Escherichia coli; [3]) [µg/mL] | MIC (Pseudomonas aeruginosa; [4]) [µg/mL] | MIC (Staphylococcus aureus; [5]) [µg/mL] | MIC [1, 6] [µg/mL] | MIC (Candida albicans; MTCC 3017, 24 h) [µg/mL] | MIC (Nakaseomyces glabratus; MTCC 3019, 24 h) [µg/mL] | MIC (Geotrichum candidum; NCIM 980, 24 h) [µg/mL] | MIC (Nakaseomyces glabratus) | MIC (Candida albicans) | MIC (Geotrichum candidum) | Activity [2] | hemolysis at 1024 ug/ml [2] [%]
1 | Brc1cccc(CN[C@H]2CCCC[C@@H]2NCc2cccc(Br)c2)c1.Cl (racemic) | 0.016 µg/mL | 0.032 µg/mL | 0.008 µg/mL | 0.032 µg/mL |  |  |  |  |  |  |  |  |  |  |  | 
2 | Brc1ccc(CNC2CCCCC2NCc2ccc(Br)cc2)cc1.Cl (stereo not given) |  |  |  |  | 0.25 | 0.032 | 0.016 | 0.032 | 0.125 | 0.125 | 0.032 |  |  |  | Non-toxic | 
3 | Cl.FC(F)(F)c1ccc(CNC2CCCCC2NCc2ccc(C(F)(F)F)cc2C(F)(F)F)c(C(F)(F)F)c1 (stereo not given) | inactive | inactive | inactive | inactive |  |  |  |  |  |  |  |  |  |  | Non-toxic | 
4 | Brc1cccc(CN[C@H]2CCCC[C@@H]2NCc2cccc(Br)c2)c1.Cl |  | 0.008 µg/mL |  |  | 0.032 |  | 0.008 | 0.032 | 0.125 | 0.065 | 0.065 |  |  |  | Non-toxic | 
5 | Cl.O=[N+]([O-])c1ccccc1CNC1CCCCC1NCc1ccccc1[N+](=O)[O-] (stereo not given) | inactive | inactive | inactive | inactive |  |  |  |  |  |  |  |  |  |  | Non-toxic | 
6 | Brc1cccc(CNC2CCCCC2NCc2cccc(Br)c2)c1.Cl (stereo not given) |  |  |  |  | 0.065 | 0.25 | 0.008 | 0.065 | 0.125 | 0.25 | 0.065 |  |  |  | Non-toxic | 
7 | COc1ccc(CNC2CCCCC2NCc2ccc(OC)cc2)cc1.Cl (stereo not given) | inactive | inactive | inactive | inactive |  |  |  |  |  |  |  |  |  |  | Non-toxic | 
8 | Cl.Fc1cccc(CNC2CCCCC2NCc2cccc(F)c2)c1 (stereo not given) |  |  | inactive |  | 0.25 | 0.25 |  | 0.25 |  |  | 0.5 | inactive | inactive |  | Non-toxic | 
9 | Cl.FC(F)(F)c1ccc(CNC2CCCCC2NCc2ccc(C(F)(F)F)cc2)cc1 (stereo not given) |  |  |  |  | 0.032 | 0.008 | 0.008 | 0.032 | 0.125 | 0.125 | 0.065 |  |  |  | Non-toxic | 
10 | C[C@@H]1[C@H](O)[C@@H](C)/C=C/C=C/C=C/C=C/C=C/C=C/C=C/[C@H](O[C@@H]2O[C@H](C)[C@@H](O)[C@H](N)[C@@H]2O)C[C@@H]2O[C@](O)(C[C@@H](O)C[C@@H](O)[C@H](O)CC[C@@H](O)C[C@@H](O)CC(=O)O[C@H]1C)C[C@H](O)[C@H]2C(=O)O [AMPHOTERICIN B] |  |  |  |  |  |  |  |  | 0.3 (≈ 0.325 µM) | 50 (≈ 54.1 µM) | 6.25 (≈ 6.76 µM) |  |  |  |  | 
11 | Cl.FC(F)(F)c1cccc(CN[C@H]2CCCC[C@@H]2NCc2cccc(C(F)(F)F)c2)c1 |  |  |  |  | 0.032 | 0.008 | 0.016 | 0.065 |  | 0.125 | 0.125 |  | inactive |  |  | 3.7
12 | Brc1ccccc1CNC1CCCCC1NCc1ccccc1Br.Cl (stereo not given) | inactive | inactive | inactive | inactive |  |  |  |  |  |  |  |  |  |  | Non-toxic | 
13 | Cc1ccccc1CNC1CCCCC1NCc1ccccc1C.Cl (stereo not given) |  |  |  |  | 0.125 | 0.125 | 0.25 | 0.25 |  |  | 0.25 | inactive | inactive |  | Non-toxic | 
14 | Cl.Clc1ccc(CNC2CCCCC2NCc2ccc(Cl)cc2Cl)c(Cl)c1 (racemic) |  |  |  |  | 0.032 | 0.016 | 0.016 | 0.032 |  |  |  |  |  |  |  | 
15 | CN(C)[C@@H]1C(O)=C(C(N)=O)C(=O)[C@@]2(O)C(O)=C3C(=O)c4c(O)cccc4[C@@](C)(O)[C@H]3C[C@@H]12 [TETRACYCLINE] |  |  |  |  | 0.001 (≈ 0.00225 µM) |  | 0.001 (≈ 0.00225 µM) | 0.002 (≈ 0.0045 µM) |  |  |  |  |  |  |  | 
16 | c1ccc(CNC2CCCCC2NCc2ccccc2)cc1 (stereo not given) | inactive | inactive | inactive | inactive |  |  |  |  |  |  |  |  |  |  |  | 

Second part, led by results:

Row | MIC (Escherichia coli) | MIC (Pseudomonas aeruginosa) | MIC (Staphylococcus aureus) | MIC [1] | MIC (Escherichia coli; [3]) [µg/mL] | MIC (Pseudomonas aeruginosa; [4]) [µg/mL] | MIC (Staphylococcus aureus; [5]) [µg/mL] | MIC [1, 6] [µg/mL] | MIC (Candida albicans; MTCC 3017, 24 h) [µg/mL] | MIC (Nakaseomyces glabratus; MTCC 3019, 24 h) [µg/mL] | MIC (Geotrichum candidum; NCIM 980, 24 h) [µg/mL] | MIC (Nakaseomyces glabratus) | MIC (Candida albicans) | MIC (Geotrichum candidum) | SMILES | Activity [2] | hemolysis at 1024 ug/ml [2] [%]
17 |  |  |  |  | 0.5 | 0.25 | 0.5 | 1 |  |  |  |  |  |  | Cl.O=[N+]([O-])c1cccc(CNC2CCCCC2NCc2cccc([N+](=O)[O-])c2)c1 (stereo not given) | Non-toxic | 
18 |  |  |  |  | 0.008 | 0.004 | 0.008 | 0.008 | 0.032 | 0.032 | 0.032 |  |  |  | CCc1ccc(CNC2CCCCC2NCc2ccc(CC)cc2)cc1.Cl (stereo not given) |  | 38.3
19 |  |  |  |  | 0.032 | 0.008 | 0.032 | 0.032 | 0.125 | 0.125 | 0.065 |  |  |  | Cl.Clc1cccc(CNC2CCCCC2NCc2cccc(Cl)c2)c1 (stereo not given) |  | 9.68
20 |  |  |  |  | 0.008 | 0.0005 | 0.008 | 0.008 | 0.008 | 0.008 | 0.008 |  |  |  | CCCCc1ccc(CNC2CCCCC2NCc2ccc(CCCC)cc2)cc1.Cl (stereo not given) |  | 7.68
21 |  |  |  |  | 0.032 | 0.008 | 0.016 | 0.032 | 0.125 | 0.065 | 0.065 |  |  |  | Cl.FC(F)(F)c1ccc(CN[C@H]2CCCC[C@@H]2NCc2ccc(C(F)(F)F)cc2)cc1 | Non-toxic | 
22 |  |  |  |  | 0.008 | 0.008 | 0.002 | 0.016 | 0.065 | 0.032 | 0.032 |  |  |  | Brc1ccc(CN[C@H]2CCCC[C@@H]2NCc2ccc(Br)cc2)cc1.Cl | Non-toxic | 
23 | inactive | inactive | inactive | inactive |  |  |  |  |  |  |  |  |  |  | Clc1ccccc1CNC1CCCCC1NCc1ccccc1Cl (stereo not given) |  | 9.83
24 |  |  | inactive |  | 0.032 | 0.065 |  | 0.032 | 0.125 |  | 0.032 | inactive |  |  | Cl.Clc1cccc(CN[C@H]2CCCC[C@@H]2NCc2cccc(Cl)c2)c1 (racemic) |  | 
25 |  |  |  |  | 0.008 | 0.008 | 0.008 | 0.008 | 0.125 | 0.125 | 0.032 |  |  |  | Cl.Clc1ccc(CNC2CCCCC2NCc2ccc(Cl)cc2)cc1 (stereo not given) | Non-toxic | 
26 |  |  |  |  | 0.032 | 0.032 | 0.032 | 0.032 |  |  |  |  |  |  | Cl.Clc1ccc(CN[C@H]2CCCC[C@@H]2NCc2ccc(Cl)cc2)cc1 |  | 4.8
27 |  |  |  |  | 0.065 | 0.25 | 0.016 | 0.032 | 0.125 | 0.25 | 0.125 |  |  |  | Cl.FC(F)(F)c1cccc(CNC2CCCCC2NCc2cccc(C(F)(F)F)c2)c1 (stereo not given) | Non-toxic | 
28 | inactive |  | inactive | inactive |  | 0.125 |  |  |  |  | 0.5 | inactive | inactive |  | Cl.O=[N+]([O-])c1ccc(CNC2CCCCC2NCc2ccc([N+](=O)[O-])cc2)cc1 (stereo not given) | Non-toxic | 
29 |  |  |  |  | 0.008 | 0.0006 | 0.004 | 0.008 | 0.008 | 0.008 | 0.008 |  |  |  | CC(C)(C)c1ccc(CNC2CCCCC2NCc2ccc(C(C)(C)C)cc2)cc1.Cl (stereo not given) | Non-toxic | 
30 | inactive | inactive | inactive | inactive |  |  |  |  |  |  |  |  |  |  | Cl.FC(F)(F)c1ccc(C(F)(F)F)c(CNC2CCCCC2NCc2cc(C(F)(F)F)ccc2C(F)(F)F)c1 (stereo not given) | Non-toxic | 
31 |  |  |  |  | 0.004 | 0.0005 | 0.008 | 0.008 | 0.008 | 0.016 |  |  |  | inactive | CC(C)c1ccc(CNC2CCCCC2NCc2ccc(C(C)C)cc2)cc1.Cl (stereo not given) |  | 81.8
32 |  |  |  |  | 0.25 | 0.032 | 0.065 | 0.065 | 0.5 |  | 0.5 | inactive |  |  | Cl.FC(F)(F)c1ccccc1CNC1CCCCC1NCc1ccccc1C(F)(F)F (stereo not given) | Non-toxic | 
33 |  |  |  |  | 0.25 | 0.125 | 0.125 | 0.25 |  |  | 0.25 | inactive | inactive |  | Cc1ccc(CNC2CCCCC2NCc2ccc(C)cc2)cc1.Cl (stereo not given) |  | 19.2
34 |  |  |  |  | 0.125 | 0.065 | 0.032 | 0.25 |  |  | 0.25 | inactive | inactive |  | Cc1cccc(CNC2CCCCC2NCc2cccc(C)c2)c1.Cl (stereo not given) |  | 4.78

— ChEMBL document CHEMBL1667746, “Synthesis, antimicrobial activity and structure-activity relationship study of N,N-dibenzyl-cyclohexane-1,2-diamine derivatives” (Eur J Med Chem, 2011)
